Patent publication US9708314B2, “Heterocyclic amide compound” (NISSAN CHEMICAL INDUSTRIES, LTD., priority 2013, dated 2017)

Tests used:
Type in all cases: in vivo
Amaranthus retroflexus = test: Test Example 4: herbicidal effect by application to foliage (diluvial soil, plastic box); settings: 320 g/ha; for N (Amaranthus retroflexus) herbicidal effect grade: foliage application
Procedure, shortened: (§1)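 Emulsion-formulated compound, diluted to a predetermined g/ha dose, applied by small sprayer to leaves and stems of 14-day-old seedlings grown in sterilized diluvial soil. Effect rated on 0–5 herbicidal-ratio scale three weeks on.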

Alopecurus myosuroides = test: as above; settings: 320 g/ha; for J (Alopecurus myosuroides) herbicidal effect grade: foliage application
Procedure, shortened: as §1

Stellaria media = test: as above; settings: 320 g/ha; for P (Stellaria media) herbicidal effect grade: foliage application
Procedure, shortened: as §1

Abutilon theophrasti = test: as above; settings: 320 g/ha; for M (Abutilon theophrasti) herbicidal effect grade: foliage application
Procedure, shortened: as §1

Avena fatua = test: as above; settings: 320 g/ha; for I (Avena fatua) herbicidal effect grade: foliage application
Procedure, shortened: as §1

Chenopodium album = test: as above; settings: 320 g/ha; for O (Chenopodium album) herbicidal effect grade: foliage application
Procedure, shortened: as §1

Setaria viridis = test: as above; settings: 320 g/ha; for G (Setaria viridis) herbicidal effect grade: foliage application
Procedure, shortened: as §1

Galium spurium = test: as above; settings: 320 g/ha; for Q (Galium spurium) herbicidal effect grade: foliage application
Procedure, shortened: as §1

Digitaria ciliaris = test: as above; settings: 320 g/ha; for F (Digitaria ciliaris) herbicidal effect grade: foliage application
Procedure, shortened: as §1

Apera spica-venti. = test: as above; settings: 320 g/ha; for L (Apera spica-venti.) herbicidal effect grade: foliage application
Procedure, shortened: as §1

Lolium multiflorum Lam. = test: as above; settings: 320 g/ha; for K (Lolium multiflorum Lam.) herbicidal effect grade: foliage application
Procedure, shortened: as §1

[1] = tested on: Echinochloa crus-galli var. crus-galli; test: as above; settings: 320 g/ha; for H (Echinochloa crus-galli var. crus-galli) herbicidal effect grade: foliage application
Procedure, shortened: as §1

Veronica persica = test: as above; settings: 320 g/ha; for R (Veronica persica) herbicidal effect grade: foliage application
Procedure, shortened: as §1

Leptochloa chinensis = test: Test Example 3: herbicidal effect by application to foliage (Wagner pot, water depth 0.1-0.5 cm); settings: Nineteenth Table; application to foliage; application herbicide amount 320 g/ha
Procedure, shortened: (§2)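 Plants are raised 14 days from seed in flooded-surface Wagner pots at 25–30 °C, sprayed on stems and leaves with diluted emulsion at a predetermined rate, and rated three weeks on using a 0–5 herbicidal-ratio scale (5 ≥90%).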

Cyperus difformis = test: as above; settings: Nineteenth Table; application to foliage; application herbicide amount 320 g/ha
Procedure, shortened: as §2

[2] = tested on: Echinochloa crus-galli var. crus-galli; test: as above; settings: Nineteenth Table; application to foliage; application herbicide amount 320 g/ha
Procedure, shortened: as §2

[3] = tested on: directly sowed Oryza sativa; test: Test Example 4: effect on crop by application to foliage (diluvial soil, plastic box); settings: 320 g/ha; for d (directly sowed Oryza sativa) effect on crop grade: foliage application
Procedure, shortened: as §1

Brassica campestris L. = test: as above; settings: 320 g/ha; for g (Brassica campestris L.) effect on crop grade: foliage application
Procedure, shortened: as §1

[4] = tested on: Beta vulgaris ssp. vulgaris; test: as above; settings: 320 g/ha; for f (Beta vulgaris ssp. vulgaris) effect on crop grade: foliage application
Procedure, shortened: as §1

Glycine max = test: as above; settings: 320 g/ha; for c (Glycine max) effect on crop grade: foliage application
Procedure, shortened: as §1

Zea mays = test: as above; settings: 320 g/ha; for b (Zea mays) effect on crop grade: foliage application
Procedure, shortened: as §1

Triticum aestivum = test: as above; settings: 320 g/ha; for e (Triticum aestivum) effect on crop grade: foliage application
Procedure, shortened: as §1

| Compound | D (herbicidal effect grade) (Leptochloa chinensis) | E (herbicidal effect grade) (Cyperus difformis) | H (herbicidal effect grade) [2] | N (Amaranthus retroflexus) herbicidal effect grade (Amaranthus retroflexus) | J (Alopecurus myosuroides) herbicidal effect grade (Alopecurus myosuroides) | P (Stellaria media) herbicidal effect grade (Stellaria media) | M (Abutilon theophrasti) herbicidal effect grade (Abutilon theophrasti) | I (Avena fatua) herbicidal effect grade (Avena fatua) | O (Chenopodium album) herbicidal effect grade (Chenopodium album) | G (Setaria viridis) herbicidal effect grade (Setaria viridis) | Q (Galium spurium) herbicidal effect grade (Galium spurium) | F (Digitaria ciliaris) herbicidal effect grade (Digitaria ciliaris) | L (Apera spica-venti.) herbicidal effect grade (Apera spica-venti.) | K (Lolium multiflorum Lam.) herbicidal effect grade (Lolium multiflorum Lam.) | H (Echinochloa crus-galli var. crus-galli) herbicidal effect grade [1] | R (Veronica persica) herbicidal effect grade (Veronica persica) | d (directly sowed Oryza sativa) effect on crop grade [3] | g (Brassica campestris L.) effect on crop grade (Brassica campestris L.) | f (Beta vulgaris ssp. vulgaris) effect on crop grade [4] | c (Glycine max) effect on crop grade (Glycine max) | also measured |
| --- | --- | --- | --- | --- | --- | --- | --- | --- | --- | --- | --- | --- | --- | --- | --- | --- | --- | --- | --- | --- | --- |
| CN(CCC#N)c1nnc2c(C(=O)Nc3nnnn3C)ccc(C(F)(F)F)n12 [2-095] | 5 (Herbicidal ratio of 90% or more (almost completely withered)) | 5 (Herbicidal ratio of 90% or more (almost completely withered)) | 5 (Herbicidal ratio of 90% or more (almost completely withered)) | – | – | – | – | – | – | – | – | – | – | – | – | – | – | – | – | – | herbicidal effect, N (Amaranthus retroflexus) (Amaranthus retroflexus; application to foliage): 5 (Herbicidal ratio of 90% or more (almost completely withered)); herbicidal effect, J (Alopecurus myosuroides) (Alopecurus myosuroides; application to foliage): 4 (Herbicidal ratio of 70% or more and less than 90%); herbicidal effect, P (Stellaria media) (Stellaria media; application to foliage): 5 (Herbicidal ratio of 90% or more (almost completely withered)); herbicidal effect, M (Abutilon theophrasti) (Abutilon theophrasti; application to foliage): 5 (Herbicidal ratio of 90% or more (almost completely withered)); herbicidal effect, I (Avena fatua) (Avena fatua; application to foliage): 4 (Herbicidal ratio of 70% or more and less than 90%); herbicidal effect, O (Chenopodium album) (Chenopodium album; application to foliage): 5 (Herbicidal ratio of 90% or more (almost completely withered)); herbicidal effect, G (Setaria viridis) (Setaria viridis; application to foliage): 5 (Herbicidal ratio of 90% or more (almost completely withered)); herbicidal effect, Q (Galium spurium) (Galium spurium; application to foliage): 4 (Herbicidal ratio of 70% or more and less than 90%); herbicidal effect, F (Digitaria ciliaris) (Digitaria ciliaris; application to foliage): 5 (Herbicidal ratio of 90% or more (almost completely withered)); herbicidal effect, L (Apera spica-venti.) (Apera spica-venti.; application to foliage): 5 (Herbicidal ratio of 90% or more (almost completely withered)); herbicidal effect, K (Lolium multiflorum Lam.) (Lolium multiflorum Lam.; application to foliage): 3 (Herbicidal ratio of 40% or more and less than 70%); herbicidal effect, H (Echinochloa crus-galli var. crus-galli) ([1]; application to foliage): 5 (Herbicidal ratio of 90% or more (almost completely withered)); herbicidal effect, R (Veronica persica) (Veronica persica; application to foliage): 4 (Herbicidal ratio of 70% or more and less than 90%); effect on crop, d (directly sowed Oryza sativa) ([3]; application to foliage): 5 (Herbicidal ratio of 90% or more (almost completely withered)); effect on crop, g (Brassica campestris L.) (Brassica campestris L.; application to foliage): 5 (Herbicidal ratio of 90% or more (almost completely withered)); effect on crop, f (Beta vulgaris ssp. vulgaris) ([4]; application to foliage): 5 (Herbicidal ratio of 90% or more (almost completely withered)); effect on crop, c (Glycine max) (Glycine max; application to foliage): 1 (Herbicidal ratio of 5% or more and less than 20%); effect on crop, b (Zea mays) (Zea mays; application to foliage): 5 (Herbicidal ratio of 90% or more (almost completely withered)); effect on crop, e (Triticum aestivum) (Triticum aestivum; application to foliage): 3 (Herbicidal ratio of 40% or more and less than 70%) |
| Cn1nnnc1NC(=O)c1ccc(C(F)(F)F)n2c(-c3ccc(F)cc3)nnc12 [2-043] | 5 (Herbicidal ratio of 90% or more (almost completely withered)) | 5 (Herbicidal ratio of 90% or more (almost completely withered)) | 5 (Herbicidal ratio of 90% or more (almost completely withered)) | 5 (Herbicidal ratio of 90% or more (almost completely withered)) | 3 (Herbicidal ratio of 40% or more and less than 70%) | 5 (Herbicidal ratio of 90% or more (almost completely withered)) | 5 (Herbicidal ratio of 90% or more (almost completely withered)) | 4 (Herbicidal ratio of 70% or more and less than 90%) | 5 (Herbicidal ratio of 90% or more (almost completely withered)) | 4 (Herbicidal ratio of 70% or more and less than 90%) | 4 (Herbicidal ratio of 70% or more and less than 90%) | 5 (Herbicidal ratio of 90% or more (almost completely withered)) | 4 (Herbicidal ratio of 70% or more and less than 90%) | 2 (Herbicidal ratio of 20% or more and less than 40%) | 5 (Herbicidal ratio of 90% or more (almost completely withered)) | 5 (Herbicidal ratio of 90% or more (almost completely withered)) | 4 (Herbicidal ratio of 70% or more and less than 90%) | 4 (Herbicidal ratio of 70% or more and less than 90%) | 5 (Herbicidal ratio of 90% or more (almost completely withered)) | 1 (Herbicidal ratio of 5% or more and less than 20%) | b (Zea mays) effect on crop grade (Zea mays): 3 (Herbicidal ratio of 40% or more and less than 70%); e (Triticum aestivum) effect on crop grade (Triticum aestivum): 3 (Herbicidal ratio of 40% or more and less than 70%) |
| CN(C)c1nnc2c(C(=O)Nc3nnnn3C)ccc(C(F)(F)F)n12 [2-051] | 5 (Herbicidal ratio of 90% or more (almost completely withered)) | 5 (Herbicidal ratio of 90% or more (almost completely withered)) | 5 (Herbicidal ratio of 90% or more (almost completely withered)) | 5 (Herbicidal ratio of 90% or more (almost completely withered)) | 4 (Herbicidal ratio of 70% or more and less than 90%) | 5 (Herbicidal ratio of 90% or more (almost completely withered)) | 5 (Herbicidal ratio of 90% or more (almost completely withered)) | 5 (Herbicidal ratio of 90% or more (almost completely withered)) | 5 (Herbicidal ratio of 90% or more (almost completely withered)) | 5 (Herbicidal ratio of 90% or more (almost completely withered)) | 5 (Herbicidal ratio of 90% or more (almost completely withered)) | 5 (Herbicidal ratio of 90% or more (almost completely withered)) | 5 (Herbicidal ratio of 90% or more (almost completely withered)) | 4 (Herbicidal ratio of 70% or more and less than 90%) | 5 (Herbicidal ratio of 90% or more (almost completely withered)) | 5 (Herbicidal ratio of 90% or more (almost completely withered)) | 4 (Herbicidal ratio of 70% or more and less than 90%) | 4 (Herbicidal ratio of 70% or more and less than 90%) | 5 (Herbicidal ratio of 90% or more (almost completely withered)) | 2 (Herbicidal ratio of 20% or more and less than 40%) | b (Zea mays) effect on crop grade (Zea mays): 4 (Herbicidal ratio of 70% or more and less than 90%); e (Triticum aestivum) effect on crop grade (Triticum aestivum): 4 (Herbicidal ratio of 70% or more and less than 90%) |
